# Data: patent US20120178742A1, “METABOTROPIC GLUTAMATE RECEPTOR MODULATORS” (MERZ PHARMA GmbH & CO. KGaA, priority 2009, published 2012)
# Target: T1, human metabotropic glutamate receptor mGluR5 (Homo sapiens, UniProt P41594)
# T1 construct: expressed in transfected cells; host or cells: CHO-K1
# Assay: Cytosolic calcium studies with stably transfected cells (CHO-K1)
# Type: cell-based
# Experimental: Functional Assay of mGluR5 Receptors Cytosolic Calcium Studies with Stably Transfected Cells
# Chinese hamster ovary cells (CHO-K1 cells), stably transfected for inducible expression of a human metabotropic glutamate receptor mGluR5, are seeded into black clear bottom 96 well plates at a density of 35.000 cells per well. The standard growth medium used (Dulbecco's modified Eagle Medium, DMEM plus L-proline) contains the appropriate inducer isopropyl-β-D-thiogalactopyranosid (IPTG) to achieve optimal receptor expression. One day after seeding the growth medium is exchanged for reconstituted Ca-Kit (Molecular Devices, USA) and incubated for one hour. Ca-Kit is reconstituted in an assay buffer containing 20 mM HEPES pH 7.4, glutamic-pyruvate transaminase, pyridoxal phosphate and sodium pyruvate in Hank's balanced salt solution (HBBS). Agonistic compounds to the receptor elicit increases in cytosolic calcium which can be measured as increases in fluorescence signals by use of a fluorescence imaging plate reader (Molecular Devices). […] Similarly, for the characterization of positive allosteric modulators, a dilution series of the test compound is added online to 384 well plates containing the described dye loaded cells and after a preincubation time of 5 minutes stimulated by a basal cell concentration of the agonist L-glutamate giving about 20% of the maximal signal.
# (§1) The fluorescence signal increase after addition of agonist reflects the increase of cytosolic calcium. Inconsistencies in the amount of cells per well are normalised by using the spatial uniformity correction of the FLIPR operating software Screenworks. The mean of replicated temporal data (n=3-5) is calculated and used for graphical representation. For the evaluation of the pharmacology, the calcium changes in response to different concentrations of agonist or antagonist are determined using a maximum minus minimum (MaxMin) calculation.
# (§2) All responses (RFU-values) are determined as percentage of control (=maximum response). EC50 and IC50 are calculated according the logistic equation using Prism 4.0 (GraphPad Software, USA).
# T1 sequence (P41594 21-1212): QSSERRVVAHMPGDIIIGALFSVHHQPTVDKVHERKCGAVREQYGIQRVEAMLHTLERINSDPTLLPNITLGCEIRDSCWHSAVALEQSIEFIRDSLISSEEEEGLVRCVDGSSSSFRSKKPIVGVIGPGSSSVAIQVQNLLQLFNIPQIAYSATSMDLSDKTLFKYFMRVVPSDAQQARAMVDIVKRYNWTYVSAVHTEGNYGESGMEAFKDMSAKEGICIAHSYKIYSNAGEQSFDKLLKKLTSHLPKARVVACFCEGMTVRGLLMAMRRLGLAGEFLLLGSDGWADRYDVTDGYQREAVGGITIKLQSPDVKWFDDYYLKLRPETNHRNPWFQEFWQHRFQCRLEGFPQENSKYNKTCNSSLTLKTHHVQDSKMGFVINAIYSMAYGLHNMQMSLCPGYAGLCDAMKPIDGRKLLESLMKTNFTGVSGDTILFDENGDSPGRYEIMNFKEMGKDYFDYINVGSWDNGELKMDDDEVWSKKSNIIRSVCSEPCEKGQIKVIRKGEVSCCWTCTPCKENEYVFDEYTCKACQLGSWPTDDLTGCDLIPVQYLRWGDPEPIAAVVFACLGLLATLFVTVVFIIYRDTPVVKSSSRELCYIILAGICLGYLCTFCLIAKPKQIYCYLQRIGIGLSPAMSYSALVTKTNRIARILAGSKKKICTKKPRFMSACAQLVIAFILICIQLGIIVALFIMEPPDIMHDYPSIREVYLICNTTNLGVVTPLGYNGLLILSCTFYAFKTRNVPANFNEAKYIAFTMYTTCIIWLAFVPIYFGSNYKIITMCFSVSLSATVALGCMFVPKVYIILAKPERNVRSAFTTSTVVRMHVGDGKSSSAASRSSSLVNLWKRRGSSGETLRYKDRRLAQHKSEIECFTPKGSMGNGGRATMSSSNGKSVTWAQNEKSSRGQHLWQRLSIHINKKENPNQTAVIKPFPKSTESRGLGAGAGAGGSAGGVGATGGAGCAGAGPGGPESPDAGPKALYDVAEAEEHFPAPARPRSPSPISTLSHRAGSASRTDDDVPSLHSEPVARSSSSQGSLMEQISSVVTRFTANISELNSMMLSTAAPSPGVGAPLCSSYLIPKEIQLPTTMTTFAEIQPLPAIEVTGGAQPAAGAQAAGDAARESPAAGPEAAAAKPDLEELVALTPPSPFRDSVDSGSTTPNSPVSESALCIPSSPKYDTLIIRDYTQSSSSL
row,EC50,Compound
1,740 nM,"Fc1ccccc1C#Cc1ccc2ncnn2c1 [Example 54, 6-(2-Fluoro-phenylethynyl)-[1,2,4]triazolo[1,5-a]pyridine]"
2,150 nM,"O=C(c1nc2ncc(C#Cc3ccccc3)cc2o1)N1CCCCC1 [Example 43, (6-Phenylethynyl-oxazolo[4,5-b]pyridin-2-yl)-piperidin-1-yl-methanone]"
3,340 nM,"O=C(c1cc2ncc(C#Cc3ccccc3)cn2n1)N1CCC(c2ccccc2)CC1 [Example 18, (6-Phenylethynyl-pyrazolo[1,5-a]pyrimidin-2-yl)-(4-phenyl-piperidin-1-yl)-methanone]"
4,3500 nM,"Fc1ccc(C#Cc2cnc3nccnc3c2)c(F)c1 [Example 109, 7-((2,4-Difluorophenyl)ethynyl)pyrido[2,3-b]pyrazine]"
5,1300 nM,"CC(C)(C)OC(=O)N1CC=C(C#Cc2cnc3ccnn3c2)CC1 [Example 12, 4-Pyrazolo[1,5-a]pyrimidin-6-ylethynyl-3,6-dihydro-2H-pyridine-1-carboxylic acid tert-butyl ester]"
6,6.3 nM,"C(#Cc1cnc2ncoc2c1)C1=CCCCC1 [Example 71, 6-Cyclohex-1-enylethynyl-oxazolo[4,5-b]pyridine]"
7,1700 nM,"Fc1cccc(F)c1C#Cc1cnc2ncsc2c1 [Example 78, 6-((2,6-Difluorophenyl)ethynyl)thiazolo[4,5-b]pyridine]"
8,690 nM,"Cc1ccc(C#Cc2cnc3cccnc3c2)c(F)c1 [Example 115, 3-((2-Fluoro-4-methylphenyl)ethynyl)-[1,5]naphthyridine]"
9,260 nM,"O=C(c1cc2ncc(C#Cc3ccccc3)cn2n1)N1CCCCCC1 [Example 17, Azepan-1-yl-(6-phenylethynyl-pyrazolo[1,5-a]pyrimidin-2-yl)-methanone]"
10,1100 nM,"Cc1ccccc1C#Cc1cnc2nccnc2c1 [Example 87, 7-(o-Tolylethynyl)-pyrido[2,3-b]pyrazine]"
11,410 nM,"C(#Cc1ccc2nc(-c3ccco3)nn2c1)c1ccccc1 [Example 84, 2-Furan-2-yl-6-phenylethynyl-[1,2,4]triazolo[1,5-a]pyridine]"
12,57 nM,"Cn1cnc2cc(C#Cc3ccc(F)cc3)cnc21 [Example 106, 6-(4-Fluoro-phenylethynyl)-3-methyl-3H-imidazo[4,5-b]pyridine]"
13,4100 nM,"Fc1cc(F)cc(C#Cc2cnc3nccnc3c2)c1 [Example 108, 7-((3,5-Difluorophenyl)ethynyl)pyrido[2,3-b]pyrazine]"
14,1200 nM,"O=C(c1nc2ccc(C#Cc3cccc(F)c3)cn2n1)N1CCCCC1 [Example 57, [6-(3-Fluoro-phenylethynyl)-[1,2,4]triazolo[1,5-a]pyridin-2-yl]-piperidin-1-yl-methanone]"
15,280 nM,"COc1cnc2ncc(C#Cc3ccccc3)cc2n1 [Example 92, 2-Methoxy-7-(phenylethynyl)pyrido[2,3-b]pyrazine]"

# The next lines start with the compound.
row,Compound,EC50
1,"Fc1ccc(C#Cc2cnc3ncnn3c2)cc1 [Example 49, 6-(4-Fluoro-phenylethynyl)-[1,2,4]triazolo[1,5-a]pyrimidine]",1800 nM
2,"Cc1ccccc1C#Cc1cnc2cccnc2c1 [Example 94, 3-(o-Tolylethynyl)-[1,5]naphthyridine]",410 nM
3,"Fc1cc(F)cc(C#Cc2cnc3ncsc3c2)c1 [Example 80, 6-((3,5-Difluorophenyl)ethynyl)thiazolo[4,5-b]pyridine]",660 nM
4,"Cc1ccc(C#Cc2cnc3ccnn3c2)cc1 [Example 9, 6-p-Tolylethynyl-pyrazolo[1,5-a]pyrimidine]",77 nM
5,"O=C(c1cc2ncc(C#Cc3ccccc3)cn2n1)N1CCCC1 [Example 19, (6-Phenylethynyl-pyrazolo[1,5-a]pyrimidin-2-yl)-pyrrolidin-1-yl-methanone]",610 nM
6,"Fc1cc(F)cc(C#Cc2cnc3ccnn3c2)c1 [Example 11, 6-(3,5-Difluoro-phenylethynyl)-pyrazolo[1,5-a]pyrimidine]",200 nM
7,"Fc1ccccc1C#Cc1cnc2ncnn2c1 [Example 48, 6-(2-Fluoro-phenylethynyl)-[1,2,4]triazolo[1,5-a]pyrimidine]",1000 nM
8,"Fc1ccc(C#Cc2cnc3ncoc3c2)cc1 [Example 70, 6-(4-Fluoro-phenylethynyl)-oxazolo[4,5-b]pyridine]",1400 nM
9,"C(#Cc1cnc2cccnc2c1)c1cccnc1 [Example 101, 3-(Pyridin-3-ylethynyl)-1,5-naphthyridine]",470 nM
10,"O=C(c1nc2ccc(C#Cc3ccc(F)cc3)cn2n1)N1CCCCC1 [Example 59, [6-(4-Fluoro-phenylethynyl)-[1,2,4]triazolo[1,5-a]pyridin-2-yl]-piperidin-1-yl-methanone]",6900 nM
11,"Clc1cccc(C#Cc2cnc3nccnc3c2)c1 [Example 111, 7-((3-Chlorophenyl)ethynyl)pyrido[2,3-b]pyrazine]",120 nM
12,"C(#Cc1ccc2ccnn2c1)c1ccccc1 [Example 29, 6-Phenylethynyl-pyrazolo[1,5-a]pyridine]",78 nM
13,"Fc1cccc(C#Cc2ccc3ncnn3c2)c1 [Example 53, 6-(3-Fluoro-phenylethynyl)-[1,2,4]triazolo[1,5-a]pyridine]",430 nM
14,"C(#Cc1ccc2ccnn2c1)C1=CCCCC1 [Example 30, 6-Cyclohex-1-enylethynyl-pyrazolo[1,5-a]pyridine]",29 nM
15,"Cn1cnc2cc(C#Cc3cccc(F)c3)cnc21 [Example 105, 6-(3-Fluoro-phenylethynyl)-3-methyl-3H-imidazo[4,5-b]pyridine]",21 nM
16,"C(#Cc1cnc2ncoc2c1)c1ccccc1 [Example 42, 6-Phenylethynyl-oxazolo[4,5-b]pyridine]",470 nM
17,"Fc1cccc(F)c1C#Cc1cnc2nccnc2c1 [Example 107, 7-((2,6-Difluorophenyl)ethynyl)pyrido[2,3-b]pyrazine]",3700 nM
18,"Clc1cc(Cl)cc(C#Cc2cnc3ccnn3c2)c1 [Example 2, 6-(3,5-Dichloro-phenylethynyl)-pyrazolo[1,5-a]pyrimidine]",520 nM
19,"Fc1ccc(-c2cc3ncc(C#Cc4ccccc4)cn3n2)cc1 [Example 28, 2-(4-Fluoro-phenyl)-6-phenylethynyl-pyrazolo[1,5-a]pyrimidine]",93 nM
20,"O=C(c1nc2ncc(C#Cc3ccccc3)cn2n1)N1CCCCC1 [Example 36, (6-Phenylethynyl-[1,2,4]triazolo[1,5-a]pyrimidin-2-yl)-piperidin-1-yl-methanone]",940 nM
21,"C(#Cc1cnc2ccnn2c1)Cc1ccccc1 [Example 14, 6-(3-Phenyl-prop-1-ynyl)-pyrazolo[1,5-a]pyrimidine]",120 nM

# Target: T2, mGluR5 receptors (Rattus norvegicus, UniProt P31424)
# T2 construct: Primary astrocyte cultures are prepared from cortices of newborn rats; endogenous in cells; host or cells: primary rat cortical astrocytes (Sprague-Dawley pups)
# Assay: Cytosolic calcium studies with cultured rat astrocytes
# Type: cell-based
# Experimental: Primary astrocyte cultures are prepared from cortices of newborn rats as described by Booher and Sensenbrenner (1972, Neurobiology 2(3):97-105). Briefly, Sprague-Dawley rat pups (2-4 d old) are decapitated and neocortices are dissected, disintegrated with a nylon filter (pore size 80 μm) and carefully triturated. The cell suspension is plated on poly-D-lysine pre-coated flasks (Costar, Netherlands) and cultivated in Dulbecco's Modified Eagle's Medium (DMEM, Invitrogen, Germany) supplemented with 10% foetal calf serum (FCS, Sigma, Germany), 4 mM glutamine and […] gentamycin (both Biochrom, Germany) at 37° C. in a humidified atmosphere of 5% CO2/95% air for 7 days with exchanging the medium at day 2 and 6.
# After 7 days in vitro (DIV), cells are shaken overnight at 250 rpm to remove oligodendrocytes and microglia. The next day, astrocytes are rinsed twice with CMF-PBS (calcium- and magnesium-free phosphate buffered saline, Biochrom, Germany), trypsinized and subplated on poly-D-lysine pre-coated 96-well plates (Greiner, Germany) at a density of 40,000 cells/well. 24 h after establishing the secondary culture the astrocytes are rinsed with PBS″ (phosphate buffered saline, Biochrom, Germany) and fed with astrocyte-defined medium (ADM) consisting of DMEM containing 1× G5-supplement (Invitrogen, Germany), 0.5 μg/ml heparan sulfate, and 1.5 μg/ml fibronectin (both Sigma, Germany) (Miller et al., (1993) Brain Res. 618(1):175-8). 3 days later the medium is exchanged and the cells incubated for another 2-3 days, so that at the time of experiments astrocytes are 14-15 DIV.
# The increase of cytosolic calcium after stimulation with the mGluR5 agonist L-quisqualate is measured using a fluorometric imaging plate reader (FLIPR) and the Ca-Kit (both Molecular Devices). Prior to addition of agonist or antagonist the medium is aspirated and cells are loaded for 2 h at RT with 150 μl of loading buffer consisting of Ca-sensitive dye reconstituted in sodium chloride (123 mM), potassium chloride (5.4 mM), magnesium chloride (0.8 mM), calcium chloride (1.8 mM), D-glucose (15 mM), and HEPES (20 mM), pH 7.3. Subsequently, plates are transferred to FLIPR to detect calcium increase with the addition of L-quisqualate (100 nM) measured as relative fluorescence units (RFU). If antagonists are tested, these compounds are pre-incubated for 10 minutes at RT before addition of the respective agonist.
# Thereafter, concentration-response curves for the positive modulator are performed in the presence of a fixed concentration of quisqualate showing the biggest window for potentiation (normally 10-30 nM).
# as §1, §2
# T2 sequence (P31424 21-1203): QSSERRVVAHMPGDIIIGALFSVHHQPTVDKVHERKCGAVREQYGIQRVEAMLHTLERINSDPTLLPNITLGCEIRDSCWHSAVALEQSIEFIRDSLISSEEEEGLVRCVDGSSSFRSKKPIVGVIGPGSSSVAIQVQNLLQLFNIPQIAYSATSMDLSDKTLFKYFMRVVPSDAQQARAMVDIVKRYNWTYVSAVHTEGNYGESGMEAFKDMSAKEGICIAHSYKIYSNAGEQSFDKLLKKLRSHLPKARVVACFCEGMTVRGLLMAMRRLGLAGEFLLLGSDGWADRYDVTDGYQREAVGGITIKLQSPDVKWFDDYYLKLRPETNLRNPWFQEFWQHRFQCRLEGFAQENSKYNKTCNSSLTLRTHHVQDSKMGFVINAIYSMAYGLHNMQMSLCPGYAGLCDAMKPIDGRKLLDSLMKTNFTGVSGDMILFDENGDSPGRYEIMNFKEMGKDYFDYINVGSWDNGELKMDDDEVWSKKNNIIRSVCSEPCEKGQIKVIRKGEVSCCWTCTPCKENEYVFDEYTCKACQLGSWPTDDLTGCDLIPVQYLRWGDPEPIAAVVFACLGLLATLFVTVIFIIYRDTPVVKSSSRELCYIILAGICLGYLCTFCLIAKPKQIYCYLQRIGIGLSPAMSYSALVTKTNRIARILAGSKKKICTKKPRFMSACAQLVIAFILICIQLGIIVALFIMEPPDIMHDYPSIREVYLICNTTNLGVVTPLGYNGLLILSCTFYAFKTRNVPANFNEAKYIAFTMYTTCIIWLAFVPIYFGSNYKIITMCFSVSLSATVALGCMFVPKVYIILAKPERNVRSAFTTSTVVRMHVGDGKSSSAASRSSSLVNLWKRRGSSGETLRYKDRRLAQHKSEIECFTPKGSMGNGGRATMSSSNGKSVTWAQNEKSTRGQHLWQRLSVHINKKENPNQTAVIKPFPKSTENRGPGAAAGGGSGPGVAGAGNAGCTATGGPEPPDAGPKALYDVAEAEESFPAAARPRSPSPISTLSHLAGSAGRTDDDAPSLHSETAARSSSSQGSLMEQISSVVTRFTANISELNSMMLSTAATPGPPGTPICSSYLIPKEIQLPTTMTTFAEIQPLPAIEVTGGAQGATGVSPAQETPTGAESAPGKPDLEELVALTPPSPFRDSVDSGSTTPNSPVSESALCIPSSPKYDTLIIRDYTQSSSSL
row,EC50,Compound
1,470 nM,"Fc1ccccc1C#Cc1ccc2ncnn2c1 [Example 54, 6-(2-Fluoro-phenylethynyl)-[1,2,4]triazolo[1,5-a]pyridine]"
2,60 nM,"O=C(c1nc2ncc(C#Cc3ccccc3)cc2o1)N1CCCCC1 [Example 43, (6-Phenylethynyl-oxazolo[4,5-b]pyridin-2-yl)-piperidin-1-yl-methanone]"
3,5 nM,"C(#Cc1cnc2cccnc2c1)c1ccccc1 [Example 41, 3-Phenylethynyl-[1,5]naphthyridine]"
4,1000 nM,"Oc1ccc(C#Cc2cnc3nccnc3c2)cc1 [Example 90, 4-(Pyrido[2,3-b]pyrazin-7-ylethynyl)phenol]"

# Continued, compound first:
row,Compound,EC50
1,"Cc1ccccc1C#Cc1cnc2cccnc2c1 [Example 94, 3-(o-Tolylethynyl)-[1,5]naphthyridine]",210 nM
2,"Fc1cc(F)cc(C#Cc2cnc3ncsc3c2)c1 [Example 80, 6-((3,5-Difluorophenyl)ethynyl)thiazolo[4,5-b]pyridine]",440 nM
3,"O=C(c1nc2ccc(C#Cc3ccccc3F)cn2n1)N1CCCCC1 [Example 58, [6-(2-Fluoro-phenylethynyl)-[1,2,4]triazolo[1,5-a]pyridin-2-yl]-piperidin-1-yl-methanone]",1100 nM
